# Assay results taken from patent US20020172720A1, “Control of pseudomonas aeruginosa” (priority 2001, published 2002).
# Where “and” joins values, the source holds several entries; their conditions need not be identical. Equal entries are not always repeated.
# System: Pseudomonas aeruginosa (ATCC 15442) biofilm
# Test: MBEC (minimum biofilm eradication concentration) test, Calgary Biofilm Device
# Assay type: cell-based
# Details: for MBEC, ppm as Br2, on 7-day old biofilm: one-hour biocide contact time, biofilm grown seven days in nutrient solution, halogen biocides expressed as Br2
# From the text: The efficacy of this invention in eradicating (i.e. controlling) Pseudomonas aeruginosa biofilm of sufficient age such that it had developed an extracellular polysaccharide protective slime layer, was shown by a series of standard tests performed on our behalf at MBEC Biofilm Technologies, Inc., Calgary, Canada. The test procedure, developed at the University of Calgary, utilizes a device which allows the growth of 96 identical biofilms under carefully controlled conditions. The device consists of a two-part vessel comprised of an upper plate containing 96 pegs that seals against a bottom plate. The bottom plate can consist of either a trough (for biofilm growth) or a standard 96-well plate (for biocide challenge). The biofilms develop on the 96 pegs. The device has been used as a general method for evaluating the efficacy of antibiotics and biocides towards biofilms. See in this connection H. Ceri, et al., “The MBEC Test: A New In Vitro Assay Allowing Rapid Screening for Antibiotic Sensitivity of Biofilm”, Proceedings of the ASM, 1998,89,525; Ceri, et al., “Antifungal and Biocide Susceptibility testing of Candida Biofilms using the MBEC Device”, Proceedings of the Interscience Conference on Antimicrobial Agents and Chemotherapy, 1998, 38, 495; and H. Ceri, et al., “The Calgary Biofilm Device: A New Technology for the Rapid Determination of Antibiotic Susceptibility of Bacterial Biofilms”, Journal of Clinical Microbiology, 1999, 37, 1771-1776.
# Six biocide systems were evaluated using the above test procedure and test equipment. Five of these systems were oxidizing biocides, viz., chlorine (from NaOCl), bromine (from NaOCl+NaBr), bromine and chlorine (from BCDMH), bromine (from sulfamate stabilized bromine chloride), and chlorine (from trichloroisocyanuric acid), all expressed as bromine (Br2) in mg/L, so that all test results were placed on the same basis. The sixth biocide was glutaraldehyde, a non-oxidizing biocide.
# These biocide systems were used to challenge biofilms of Pseudomonas aeruginosa (ATCC 15442). This is a Gram (−) bacterium which is known to rapidly develop an extracellular polysaccharide slime layer, and is found in industrial and recreational water systems. See in this connection J. W. Costerton and H. Anwar, “Pseudomonas aeruginosa: The Microbe and Pathogen”, in Pseudomonas aeruginosa Infections and Treatment, A. L. Baltch and R. P. Smith editors, Marcel Dekker publishers, New York, 1994.
# In the Table the MBEC (minimum biofilm eradication concentration) results presented are for the one-hour biocide contact time used in the test. The Psuedomonas aeurginosa colony was allowed to grow in contact with a nutrient solution for seven days. The values given for the halogen containing biocides are expressed in terms of mg/L of bromine as Br2. The data on the glutaraldehyde is in terms of mg/L as active ingredient. […]
# [1] = average of the results, one-hour contact time, 7-day old biofilm, expressed as Br2
smiles,measurement,setting,value
"CC1(C)C(=O)N(Cl)C(=O)N1Br [Bromine and chlorine (from BCDMH), N,N′-bromochloro-5,5-dimethylhydantoin]","MBEC, avg.",[1],7.5 ppm as Br2
same,"MBEC, ppm as Br2, on 7-day old biofilm",individual results,5 ppm as Br2 and 10 ppm as Br2
"O=CCCCC=O [Glutaraldehyde, glutaraldehyde]","MBEC, avg.","average (est.), one-hour contact time, 7-day old biofilm, glutaraldehyde as active ingredient",~200 (est.) mg/L as active ingredient
same,"MBEC, on 7-day old biofilm","individual results, one-hour contact time, 7-day old biofilm, glutaraldehyde as active ingredient",100 mg/L as active ingredient and > 200 mg/L as active ingredient
O=c1n(Cl)c(=O)n(Cl)c(=O)n1Cl [trichloroisocyanuric acid],"MBEC, avg.",[1],20 ppm as Br2
same,"MBEC, ppm as Br2, on 7-day old biofilm",individual results,"20, 20 ppm as Br2"
